The text below walks through data of patent US11446287B2, “Compounds and methods for EP300 or CBP modulation and indications therefor” (Opna Immuno-Oncology SA, priority 2019, dated 2022).

The target of this assay is T1, Recombinant human EP300 containing the bromodomain (EP300-BD (1040-1161)) (Homo sapiens, UniProt Q09472).
T1 construct: Recombinant human EP300 bromodomain (EP300-BD (1040-1161)); made in house; host or cells: E. coli BL21-CodonPlus (DE3), modified pET vector
T1 sequence (Q09472 1040-1161): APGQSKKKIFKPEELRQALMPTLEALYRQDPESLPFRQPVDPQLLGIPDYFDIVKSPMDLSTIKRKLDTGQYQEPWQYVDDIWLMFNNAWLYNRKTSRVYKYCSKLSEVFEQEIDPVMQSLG
As to the kind of experiment: EP300 Alphascreen binding assay. The essentials: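 Displacement of a biotinylated acetyl-K56 histone H3 peptide from the N-His bromodomain construct (1040-1161) measured by AlphaScreen proximity, beads at 7.5 μg/ml final, read 60 min after addition. Protein, peptide and compound first incubated 1 h at room temperature, pH 7.5 HEPES buffer; IC50 by four-parameter logistic fit.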
Take `Cc1noc(C)c1-c1cnc2c(c1)c(-c1c(F)cc(C(=O)O)cc1OC(C)C)cn2C(C1CC1)C1CC1` [P-0369, 4-(1-(dicyclopropylmethyl)-5-(3,5-dimethylisoxazol-4-yl)-1H-pyrrolo[2,3-b]pyridin-3-yl)-3-fluoro-5-isopropoxybenzoic acid]: the IC50 fell in the range of 0.1 to 1000 nM.

For the molecule `CCOc1cc(C(=O)O)cc(Cl)c1-c1cn(C(C2CC2)C2CC2)c2ncc(-c3c(C)noc3C)cc12` [P-0370, 3-chloro-4-(1-(dicyclopropylmethyl)-5-(3,5-dimethylisoxazol-4-yl)-1H-pyrrolo[2,3-b]pyridin-3-yl)-5-ethoxybenzoic acid], the IC50 was 0.1 to 1000 nM.

As to `CCOc1cc(C(=O)O)cc(Cl)c1-c1cn(C2CCOCC2)c2ncc(-c3c(C)noc3C)cc12` [P-0371, 3-chloro-4-(5-(3,5-dimethylisoxazol-4-yl)-1-(tetrahydro-2H-pyran-4-yl)-1H-pyrrolo[2,3-b]pyridin-3-yl)-5-ethoxybenzoic acid], the half-inhibitory concentration (IC50) was 0.1 to 1000 nM.

In the case of `Cc1noc(C)c1-c1cnc2c(c1)c(-c1c(Cl)cc(C(=O)O)cc1OC(C)C)cn2C1CCOCC1` [P-0372, 3-chloro-4-(5-(3,5-dimethylisoxazol-4-yl)-1-(tetrahydro-2H-pyran-4-yl)-1H-pyrrolo[2,3-b]pyridin-3-yl)-5-isopropoxybenzoic acid], the concentration for half-maximal inhibition (IC50) fell in the range of 0.1 to 1000 nM.

On to `CCOc1cc(C(=O)O)nc(OCC)c1-c1cn(C2CCOCC2)c2ncc(-c3c(C)noc3C)cc12` [P-0373, 5-(5-(3,5-dimethylisoxazol-4-yl)-1-(tetrahydro-2H-pyran-4-yl)-1H-pyrrolo[2,3-b]pyridin-3-yl)-4,6-diethoxypicolinic acid], for which the IC50 is 0.1 to 1000 nM.

Regarding `CCOc1cc(C(=O)O)c(F)c(OCC)c1-c1cn(C2CCOCC2)c2ncc(-c3c(C)noc3C)cc12` [P-0374, 4-(5-(3,5-dimethylisoxazol-4-yl)-1-(tetrahydro-2H-pyran-4-yl)-1H-pyrrolo[2,3-b]pyridin-3-yl)-3,5-diethoxy-2-fluorobenzoic acid], the concentration for half-maximal inhibition (IC50) lay within 0.1 to 1000 nM.

As for `CCOc1cc(C(=O)O)c(F)cc1-c1cn(C2CCOCC2)c2ncc(-c3c(C)noc3C)cc12` [P-0375, 4-(5-(3,5-dimethylisoxazol-4-yl)-1-(tetrahydro-2H-pyran-4-yl)-1H-pyrrolo[2,3-b]pyridin-3-yl)-5-ethoxy-2-fluorobenzoic acid], the IC50 is 0.1 to 1000 nM.

For the molecule `CCOc1nc(C(=O)O)ccc1-c1cn(C2CCOCC2)c2ncc(-c3c(C)noc3C)cc12` [P-0376, 5-(5-(3,5-dimethylisoxazol-4-yl)-1-(tetrahydro-2H-pyran-4-yl)-1H-pyrrolo[2,3-b]pyridin-3-yl)-6-ethoxypicolinic acid], the IC50 lay in the range of 0.1 to 1000 nM.

As to `CCOc1cc(C(=O)O)c(F)cc1-c1cn(-c2ccccc2F)c2ncc(-c3c(C)noc3C)cc12` [P-0377, 4-(5-(3,5-dimethylisoxazol-4-yl)-1-(2-fluorophenyl)-1H-pyrrolo[2,3-b]pyridin-3-yl)-5-ethoxy-2-fluorobenzoic acid], the IC50 fell in the range of 0.1 to 1000 nM.

For the molecule `Cc1noc(C)c1-c1cnc2c(c1)c(-c1ccc(C(=O)O)cc1OC(F)(F)F)cn2C1CCC1` [P-0378, 4-(1-cyclobutyl-5-(3,5-dimethylisoxazol-4-yl)-1H-pyrrolo[2,3-b]pyridin-3-yl)-3-(trifluoromethoxy)benzoic acid], the IC50 was in the range of 0.1 to 1000 nM.

Consider `Cc1noc(C)c1-c1cnc2c(c1)c(-c1ccc(C(=O)O)cc1OC1CC1)cn2C1CCOCC1` [P-0379, 3-cyclopropoxy-4-(5-(3,5-dimethylisoxazol-4-yl)-1-(tetrahydro-2H-pyran-4-yl)-1H-pyrrolo[2,3-b]pyridin-3-yl)benzoic acid], for which the 50% inhibitory concentration (IC50) fell in the range of 0.1 to 1000 nM.

Consider `Cc1noc(C)c1-c1cnc2c(c1)c(-c1c(Cl)cc(C(=O)O)cc1OC(F)(F)F)cn2C(C1CCC1)C1CCC1` [P-0380, 3-chloro-4-(1-(dicyclobutylmethyl)-5-(3,5-dimethylisoxazol-4-yl)-1H-pyrrolo[2,3-b]pyridin-3-yl)-5-(trifluoromethoxy)benzoic acid], for which the 50% inhibitory concentration (IC50) was in the range of 0.1 to 1000 nM.

In the case of `Cc1noc(C)c1-c1cnc2c(c1)c(-c1c(Cl)cc(C(=O)O)cc1OC1CC1)cn2C1CCOCC1` [P-0381, 3-chloro-5-cyclopropoxy-4-(5-(3,5-dimethylisoxazol-4-yl)-1-(tetrahydro-2H-pyran-4-yl)-1H-pyrrolo[2,3-b]pyridin-3-yl)benzoic acid], the 50% inhibitory concentration (IC50) lay within 0.1 to 1000 nM.

For the molecule `Cc1noc(C)c1-c1cnc2c(c1)c(-c1ccc(C(=O)O)cc1OC(F)(F)F)cn2C1CCCC1` [P-0382, 4-(1-cyclopentyl-5-(3,5-dimethylisoxazol-4-yl)-1H-pyrrolo[2,3-b]pyridin-3-yl)-3-(trifluoromethoxy)benzoic acid], the IC50 lay in the range of 0.1 to 1000 nM.

As to `Cc1noc(C)c1-c1cnc2c(c1)c(-c1ccc(C(=O)O)cc1OC(F)(F)F)cn2C1(C)CCOC1` (stereo not shown) [P-0383, 4-(5-(3,5-dimethylisoxazol-4-yl)-1-(3-methyltetrahydrofuran-3-yl)-1H-pyrrolo[2,3-b]pyridin-3-yl)-3-(trifluoromethoxy)benzoic acid], the IC50 lay in the range of 0.1 to 1000 nM.

As for `Cc1noc(C)c1-c1cnc2c(c1)c(-c1ccc(C(=O)O)cc1OC(F)(F)F)cn2-c1cnc(C2CC2)nc1` [P-0384, 4-(1-(2-cyclopropylpyrimidin-5-yl)-5-(3,5-dimethylisoxazol-4-yl)-1H-pyrrolo[2,3-b]pyridin-3-yl)-3-(trifluoromethoxy)benzoic acid], the half-inhibitory concentration (IC50) is 0.1 to 1000 nM.

With `Cc1noc(C)c1-c1cnc2c(c1)c(-c1ccc(C(=O)O)cc1OC(F)(F)F)cn2C1(C)CCOCC1` [P-0385, 4-(5-(3,5-dimethylisoxazol-4-yl)-1-(4-methyltetrahydro-2H-pyran-4-yl)-1H-pyrrolo[2,3-b]pyridin-3-yl)-3-(trifluoromethoxy)benzoic acid], the IC50 is 0.1 to 1000 nM.

Regarding `Cc1noc(C)c1-c1cnc2c(c1)c(-c1c(Cl)cc(C(=O)O)cc1OC(F)(F)F)cn2-c1cnc(C2CC2)nc1` [P-0386, 3-chloro-4-(1-(2-cyclopropylpyrimidin-5-yl)-5-(3,5-dimethylisoxazol-4-yl)-1H-pyrrolo[2,3-b]pyridin-3-yl)-5-(trifluoromethoxy)benzoic acid], the IC50 was 0.1 to 1000 nM.

For `Cc1noc(C)c1-c1cnc2c(c1)c(-c1ccc(C(=O)O)cc1OCC(F)F)cn2-c1cnc(C2CC2)nc1` [P-0387, 4-(1-(2-cyclopropylpyrimidin-5-yl)-5-(3,5-dimethylisoxazol-4-yl)-1H-pyrrolo[2,3-b]pyridin-3-yl)-3-(2,2-difluoroethoxy)benzoic acid], the IC50 lay within 0.1 to 1000 nM.
